# Data as given in paper PMC9820345, “Metal Complexes of a 5-Nitro-8-Hydroxyquinoline-Proline Hybrid with Enhanced Water Solubility Targeting Multidrug Resistant Cancer Cells” (International Journal of Molecular Sciences, 2022).
# Tests used:
# Ac-Phe-His-Ala-NH2 (FHA) = experiment: Mixed-ligand adduct formation with His-containing oligopeptide FHA; type: binding
# Experimental: (§1) According to numerous papers on the binding of half-sandwich organometallic complexes to HSA [35, 36], surface exposed histidine (His) side chains are the most feasible coordinating moieties. […] The equilibrium could be reached within 3–10 min in the case of the RhCp* complex on the basis of the UV-vis spectral changes (Figure S28), and similar conditional constants (logK’) were computed with these model compounds for the formation of mixed-ligand RhCp* complexes; namely logK’ 5.00 ± 0.1, 4.4 ± 0.1, 5.1 ± 0.1 were obtained in the case of FHA, AHA, and mim, respectively. […] In the case of the oligopeptides, formation of isomers was detected which might be explained by the existence of two chiral centers, namely the metal ion and His-CHα. The adduct formation of the RuCym complex with mim was quantitative, hindering the determination of the logK’ value (meaning logK’ > 5.5). […]
# (§2) An Agilent Cary 8454 diode array spectrophotometer (Santa Clara, CA, USA) was used to obtain UV-vis spectra in the wavelength range 200–1000 nm, while spectra were recorded for the Fe(II)-containing samples using an Avantes (Avantes B.V., Apeldoorn, The Nederlands) AvaSpec-ULS2048CL-EVO spectrometer with an AvaLight-DHc light source and FDP-7UVIR200-2-VAR transmission dip probe. […]
# [1] = Stability of the complexes in RPMI medium (UV-vis, 1H NMR); type: physicochemical; details: compared with serum
# Excerpt: (§3) The stability of the RhCp* and RuCym complexes of HQNO2-L-Pro was also monitored in Roswell Park Memorial Institute (RPMI) medium used for the in vitro cell studies (in the case of Colo cells), and in blood serum using UV-vis and ^1H NMR spectroscopy. […] Despite these changes, the dissociation of the complexes is not likely as the liberation of the unbound ligand was not observed; thus, the complexes most probably form ternary complexes with the components of the serum or the medium. In order to further study the reactivity of these complexes with bioligands, their interaction with human serum albumin (HSA) and selected oligopeptides (also used as binding models of HSA) was assayed.
# [2] = Stability of the complexes in blood serum (UV-vis); type: in vitro ADME, human; details: blood serum four-time diluted with PBS'; after 24 h
# Excerpt: as §3
# Stock and sample solutions were prepared using Milli-Q water. […] Their concentrations were determined by complexometry via the EDTA complexes. […] The concentration of the Fe(II) stock solution was determined by permanganometric titrations under acidic conditions. […] Residual citrate content of HSA was removed by repeated ultrafiltration of the protein stock solution, and its concentration was calculated from its UV absorption: λ280nm (HSA) = 36,850 M^−1 cm^−1 [51]. […]
# [3] = Mixed-ligand adduct formation with N-methylimidazole; type: binding; details: mim, pH 7.4
# Experimental: as §1, §2
# Ac-Ala-His-Ala-NH2 (AHA) = experiment: Mixed-ligand adduct formation with His-containing oligopeptide AHA; type: binding
# Experimental: as §1, §2
# [4] = pH 7.4, 1H NMR peak integrals, 24 h incubation
Compound,conditional constant logK' of adduct (Ac-Phe-His-Ala-NH2 (FHA); [4]),spectral changes on incubation in RPMI medium [1],changes of the charge-transfer bands (400–500 nm) on incubation in serum [2],"conditional constant logK' of adduct ([3]; 1H NMR, 24 h incubation, adduct formation quantitative)",conditional constant logK' of adduct (Ac-Ala-His-Ala-NH2 (AHA); [4]),"conditional constant logK' of mixed-ligand complex (Ac-Phe-His-Ala-NH2 (FHA); pH 7.4, UV-vis)",conditional constant logK' of mixed-ligand complex ([3]; UV-vis),"conditional constant logK' of mixed-ligand complex (Ac-Ala-His-Ala-NH2 (AHA); pH 7.4, UV-vis)"
"Cc1ccc(C(C)C)cc1.O=C(O)[C@@H]1CCC[NH+]1Cc1cc([N+](=O)[O-])c2ccc[n+]3c2c1[O][Ru-]3[Cl].[Cl-] [RuCym-HQNO2-L-Pro, [RuCym(HQNO2-L-Pro)Cl]Cl]",3.9 ± 0.2,more significant,minor changes,> 5.5,5.1 ± 0.2,,,
"CC1=C(C)[C](C)([Rh]([Cl])[O]c2c(C[NH+]3CCC[C@H]3C(=O)O)cc([N+](=O)[O-])c3cccnc23)C(C)=C1C.[Cl-] [RhCp*-HQNO2-L-Pro, [RhCp*(HQNO2-L-Pro)Cl]Cl]",,more significant,minor changes,,,5.00 ± 0.1,5.1 ± 0.1,4.4 ± 0.1
